Legend:
[1] = test system: phospholipids in intestinal mucosa; experiment: Peroxidation of phospholipids in gut mucosa after hemorrhagic shock; format: in vivo, rat; settings: 10 μM intraluminal; 2 h HS
Source text: Assay for peroxidation of phospholipods. Gut mucosal samples were homogenized. Lipids were extracted from homogenates using the Folch procedure, see M. Lees and G. H. Sloan-Stanley, A simple method for isolation and purification of total lipids from animal tissue, J. BIOL. CHEM. 226:497-509 (1957), and resolved by 2D HPTLC (High Performance Thin Layer Chromatography) as previously described, see Kagan, V. E. et al., A role for oxidative stress in apoptosis: Oxidation and externalization of phosphatidylserine is required for macrophage clearance of cell undergoing Fas-mediated apoptosis, J Immunol. 169:487-489 (2002). Spots of phospholipids were scraped from HPTLC plates and phospholipids were extracted from silica. Lipid phosphorus was determined by a micro-method, see Bottcher, C. J. F. et al, A rapid and sensitive sub-micro phosphons determination. Anal Chim Acta. 24: 203-204 (1961).
Oxidized phospholipids were hydrolyzed by pancreatic phospholipase A2 (2 U/μl) in 25 mM phosphate buffer containing 1 mM CaCl2. 0.5 mM EDTA and 0.5 mM sodium dodecyl sulfate (SDS) (pH 8.0, at room temperature for 30 min). Fatty acid hydroperoxides formed were determined by fluorescence HPLC of resorufin stoichiometrically formed during their microperoxidase 11-catalized reduction in presence of Amplex Red (for 40 min at 4° C.) (8). Fluorescence HPLC (Eclipse XDB-C18 column, 5 μm, 150×4.6 mm, mobile phase was composed of 25 mM disodium phosphate buffer (pH 7.0)/methanol (60:40 v/v); excitation wavelength 560 nm, emission wavelength 590 nm) was performed on a Shimadzu LC-100AT HPLC system equipped with fluorescence detector (RF-10Axl) and autosampler (SIL-10AD).
In the subsequent series of in vivo studies, the affect of intraluminal XJB-5-131 on hemorrhage-induced peroxidation of phospholipids in intestinal mucosa was examined. […] In a preferred embodiment, 0.3 mL of test solution filled the lumen of each ileal compartment.
After two hours of HS, samples of ileal mucosa from the gut sacs filled with the vehicle and XJB-5-131 were obtained and compared with ileal mucosa of normal MECs. […]

caspases 3 and 7 = experiment: Caspases 3 and 7 activity assay in gut mucosa after hemorrhagic shock; format: in vivo, rat; settings: intraluminal XJB-5-131 solution vs vehicle
Experimental: Caspases 3 and 7 activity assay. Caspases 3 and 7 activity was measured using a commercially available assay kit, Caspase Glo™ 3/7 assay kit (Promega, Madison, Wis.). Briefly, 50 μl of rat gut mucosa homogenate (20 jug protein) was mixed with 50 μl of Caspase-Glo™ reagent and incubated at room temperature for 1 hour. At the end of incubation period, the luminescence of each sample was measured using a plate reading chemiluminometer (ML1000, Dynatech Laboratories, Horsham, Pa.). Activity of caspases 3 and 7 was expressed as luminescence intensity (arbitrary units per mg protein). Protein concentrations were determined using the BioRad assay (Bio-Rad Laboratories, Inc., Hercules, Calif.).
After two hours of HS, samples of ileal mucosa from the gut sacs filled with the vehicle and XJB-5-131 were obtained and compared with ileal mucosa of normal MECs. All samples were assayed with caspase 3 or caspase 7 activity as well as the peroxidation of phosphatidylcholine (“PC”), phosphatidylethanolamine (“PE”), phosphatidylserine (“PS”), and cardiolipin (“CL”), summarized in FIG. 7.

[2] = test system: rats subjected to volume-controlled hemorrhagic shock; experiment: Survival of rats subjected to volume-controlled hemorrhagic shock; format: in vivo, rat; settings: 2 μmol/kg intravenous; for survival vs vehicle: last 20 min of hemorrhage
Experimental: Survival of rats subjected to volume-controlled hemorrhagic shock. Following surgical preparation and a 5-min stabilization period to obtain baseline readings, rats were subjected to hemorrhagic shock. Bleeding was carried out in 2 phases.
Initially, 21 ml/kg of blood was withdrawn over 20 min. Immediately thereafter, an additional 12.5 ml/kg of blood was withdrawn over 40 min. Thus, hemorrhage occurred over a total period of 60 min and the total blood loss was 33.5 ml/kg or approximately 55% of the total blood volume. Rats were randomly assigned to receive XJB-5-131 (2 μmol/kg) or its vehicle, a 33:67 (v/v) mixture of DMSO and normal saline. XJB-5-131 solution or vehicle alone was administered as a continuous infusion during the last 20 min of the hemorrhage period. The total volume of fluid infused was 2.8 ml/kg and it was administered intravenously using a syringe pump (KD100, KD Scientific, New Hope, Pa.). […] At the end of the 6 hour observation period, animals that were still alive were euthanized with an overdose of KCl.
A total of sixteen rats were tested in this study. Rats were treated with 2.8 ml/kg of vehicle or the same volume of XJB-5-131 solution during the final 20 min of the bleeding protocol. The total dose of XJB-5-131 infused was 2 μmol/kg. Following profound hemorrhagic shock consistent with the protocol described above for the prior studies, thirteen survived for at least 60 min and received the full dose of either XJB-5-131 solution or the vehicle, a 33:67 (v/v) mixture of DMSO and normal saline. […] None of the between-group differences were statistically significant.

[3] = test system: MEF cells from Ercc1−/− mouse embryos; experiment: Senescence, DNA damage and apoptosis in Ercc1−/− MEF cells under ambient oxygen; format: cell-based; settings: 500 nM
Experimental: Graphs showing weight over time of treated, untreated and control animals are shown in FIG. 36A-B. To assess the impact of XJB-5-131 at a cellular level, a number of experiments were carried out using mouse embryonic fibroblasts (“MEF”) cells harvested from Ercc1^−/− mouse embryos.

[4] = test system: p16 in primary MEFs from Ercc1−/− mouse embryos; experiment: p16 immunofluorescence in Ercc1−/− MEFs under 20% oxygen; format: cell-based; settings: 1 uM, 48 hrs
Experimental: To test the protective activity of JP4-039, cultures of primary MEFs were prepared from Ercc1^−/− mouse embryos and grown under 20% oxygen (ambient air), which creates oxidative stress in these cells that are hypersensitive to reactive oxygen species. The cells were then either treated with a concentration of 1 uM XJB-5-131, JP4-039, JED-E71-37 or JED-E71-58, or left untreated (media), and then after 48 hrs the level of p16, a marker of irreversible cellular senescence, was measured by immunofluorescence staining.

[5] = test system: γ-H2AX in primary MEF cells from Ercc1−/− mice; experiment: γ-H2AX immunostaining in Ercc1−/− MEFs under oxidative stress; format: cell-based, mouse; settings: 1 μM, 48 hours
Experimental: Next, the abilities of these two agents, as well as XJB-5-131 and JP4-039, each at a concentration of 1 μM, were tested for their ability to prevent oxidation-induced DNA double-strand breaks in cell cultures prepared, and oxidatively stressed, as in the preceding paragraph. Treated as well as untreated cells were, after 48 hours of treatment, immunostained for γ-H2AX, a marker of DNA double-strand breaks as well as cellular senescence.

CC(C)C[C@@H](/C=C/[C@H](Cc1ccccc1)C(=O)N1CCC[C@H]1C(=O)N[C@H](C(=O)N[C@@H](CCCNC(=O)OCc1ccccc1)C(=O)NC1CC(C)(C)N([O])C(C)(C)C1)C(C)C)NC(=O)OC(C)(C)C [XJB-5-131]
peroxidation of phosphatidylcholine (PC) [1]: no effect | peroxidation of phosphatidylethanolamine (PE) [1]: only had a small effect | peroxidation of phosphatidylserine (PS) [1]: no effect | caspase 3 and 7 activity after hemorrhagic shock (caspases 3 and 7): significantly decreased | rats surviving longer than 3 hours after completion of the hemorrhage protocol [2]: Three of the six | rats surviving the whole 6 hour post-bleeding observation period [2]: one | survival vs vehicle [2]: survived significantly longer | survival vs vehicle ([2]; listed as XJR-5-131): significantly prolonged the survival | SA-β galactosidase staining [3]: notably less | apoptosis [3]: did not reduce the amount of apoptosis | γH2AX foci [3]: reduce the number of γH2AX foci | level of p16 [4]: less effective | γ-H2AX (oxidation-induced DNA double-strand breaks) [5]: less effective

— US9890192B2, “Targeted nitroxide agents” (University of Pittsburgh—of the Commonwealth System of …, priority 2008, dated 2018)
